{
  "source": "ChEMBL document CHEMBL1255399",
  "about": "“Haemophilus influenzae clinical isolates with plasmid pB1000 bearing blaROB-1: fitness cost and interspecies dissemination” (2010)",
  "assay_type_in_all_cases": "functional",
  "key": {"Haemophilus influenzae [1]": {"tested_on": "Haemophilus influenzae", "test": "Antimicrobial activity against Haemophilus influenzae Rd KW20 by broth microdilution method"}, "Haemophilus influenzae [2]": {"tested_on": "Haemophilus influenzae", "test": "Antimicrobial activity against ampicillin resistant nontypeable Haemophilus influenzae isolate BB1051 harboring with plasmid pB1000 bearing beta-lactamase ROB-1 by broth microdilution method"}, "Haemophilus influenzae [3]": {"tested_on": "Haemophilus influenzae", "test": "Antimicrobial activity against ampicillin resistant nontypeable Haemophilus influenzae isolate BB1052 harboring with plasmid pB1000 bearing beta-lactamase ROB-1 by broth microdilution method"}, "Haemophilus influenzae [4]": {"tested_on": "Haemophilus influenzae", "test": "Antimicrobial activity against Haemophilus influenzae Rd KW20 harboring with plasmid pB1000 bearing beta-lactamase ROB-1 by broth microdilution method"}, "Haemophilus influenzae [5]": {"tested_on": "Haemophilus influenzae", "test": "Antimicrobial activity against ampicillin resistant nontypeable Haemophilus influenzae isolate BB1050 harboring with plasmid pB1000 bearing beta-lactamase ROB-1 by broth microdilution method"}, "Haemophilus influenzae [6]": {"tested_on": "Haemophilus influenzae", "test": "Antimicrobial activity against ampicillin resistant serotype-e Haemophilus influenzae isolate BB1053 harboring with plasmid pB1000 bearing beta-lactamase ROB-1 by broth microdilution method"}},
  "data": [
    {"smiles": "CC1(C)S[C@@H]2[C@H](NC(=O)[C@H](N)c3ccc(O)cc3)C(=O)N2[C@H]1C(=O)O", "note": "[AMOXICILLIN]", "values": [
      {"measurement": "MIC", "setting": "Haemophilus influenzae [1]", "value": "≤ 0.5", "unit": "µg/mL"},
      {"measurement": "MIC", "setting": "Haemophilus influenzae [2]", "value": "> 64", "unit": "µg/mL"},
      {"measurement": "MIC", "setting": "Haemophilus influenzae [3]", "value": "> 64", "unit": "µg/mL"},
      {"measurement": "MIC", "setting": "Haemophilus influenzae [4]", "value": "> 64", "unit": "µg/mL"},
      {"measurement": "MIC", "setting": "Haemophilus influenzae [5]", "value": "> 64", "unit": "µg/mL"},
      {"measurement": "MIC", "setting": "Haemophilus influenzae [6]", "value": "> 64", "unit": "µg/mL"}
    ]},
    {"smiles": "CC1(C)S[C@@H]2[C@H](NC(=O)[C@H](N)c3ccccc3)C(=O)N2[C@H]1C(=O)O", "note": "[AMPICILLIN]", "values": [
      {"measurement": "MIC", "setting": "Haemophilus influenzae [1]", "value": "≤ 0.25", "unit": "µg/mL"},
      {"measurement": "MIC", "setting": "Haemophilus influenzae [2]", "value": "> 128", "unit": "µg/mL"},
      {"measurement": "MIC", "setting": "Haemophilus influenzae [3]", "value": "> 128", "unit": "µg/mL"},
      {"measurement": "MIC", "setting": "Haemophilus influenzae [4]", "value": "> 128", "unit": "µg/mL"},
      {"measurement": "MIC", "setting": "Haemophilus influenzae [5]", "value": "> 128", "unit": "µg/mL"},
      {"measurement": "MIC", "setting": "Haemophilus influenzae [6]", "value": "> 128", "unit": "µg/mL"}
    ]},
    {"smiles": "C[C@H]1[C@H](NC(=O)/C(=N\\OC(C)(C)C(=O)O)c2csc(N)n2)C(=O)N1S(=O)(=O)O", "note": "[AZTREONAM]", "values": [
      {"measurement": "MIC", "setting": "Haemophilus influenzae [1]", "value": "≤ 0.12", "unit": "µg/mL"},
      {"measurement": "MIC", "setting": "Haemophilus influenzae [2]", "value": "≤ 0.12", "unit": "µg/mL"},
      {"measurement": "MIC", "setting": "Haemophilus influenzae [3]", "value": "≤ 0.12", "unit": "µg/mL"},
      {"measurement": "MIC", "setting": "Haemophilus influenzae [4]", "value": "≤ 0.12", "unit": "µg/mL"},
      {"measurement": "MIC", "setting": "Haemophilus influenzae [5]", "value": "≤ 0.12", "unit": "µg/mL"},
      {"measurement": "MIC", "setting": "Haemophilus influenzae [6]", "value": "≤ 0.12", "unit": "µg/mL"}
    ]},
    {"smiles": "N[C@@H](C(=O)N[C@@H]1C(=O)N2C(C(=O)O)=C(Cl)CS[C@H]12)c1ccccc1", "note": "[CEFACLOR ANHYDROUS]", "values": [
      {"measurement": "MIC", "setting": "Haemophilus influenzae [1]", "value": 1, "unit": "µg/mL"},
      {"measurement": "MIC", "setting": "Haemophilus influenzae [2]", "value": 64, "unit": "µg/mL"},
      {"measurement": "MIC", "setting": "Haemophilus influenzae [3]", "value": 64, "unit": "µg/mL"},
      {"measurement": "MIC", "setting": "Haemophilus influenzae [4]", "value": 64, "unit": "µg/mL"},
      {"measurement": "MIC", "setting": "Haemophilus influenzae [5]", "value": 64, "unit": "µg/mL"},
      {"measurement": "MIC", "setting": "Haemophilus influenzae [6]", "value": 64, "unit": "µg/mL"}
    ]},
    {"smiles": "C=CC1=C(C(=O)O)N2C(=O)[C@@H](NC(=O)/C(=N\\OCC(=O)O)c3csc(N)n3)[C@H]2SC1", "note": "[CEFIXIME]", "values": [
      {"measurement": "MIC", "setting": "Haemophilus influenzae [1]", "value": "≤ 0.03", "unit": "µg/mL"},
      {"measurement": "MIC", "setting": "Haemophilus influenzae [2]", "value": 0.06, "unit": "µg/mL"},
      {"measurement": "MIC", "setting": "Haemophilus influenzae [3]", "value": "≤ 0.03", "unit": "µg/mL"},
      {"measurement": "MIC", "setting": "Haemophilus influenzae [4]", "value": 0.06, "unit": "µg/mL"},
      {"measurement": "MIC", "setting": "Haemophilus influenzae [5]", "value": 0.06, "unit": "µg/mL"},
      {"measurement": "MIC", "setting": "Haemophilus influenzae [6]", "value": 0.06, "unit": "µg/mL"}
    ]},
    {"smiles": "CO/N=C(\\C(=O)N[C@@H]1C(=O)N2C(C(=O)O)=C(COC(C)=O)CS[C@H]12)c1csc(N)n1", "note": "[CEFOTAXIME]", "values": [
      {"measurement": "MIC", "setting": "Haemophilus influenzae [1]", "value": "≤ 0.03", "unit": "µg/mL"},
      {"measurement": "MIC", "setting": "Haemophilus influenzae [2]", "value": "≤ 0.03", "unit": "µg/mL"},
      {"measurement": "MIC", "setting": "Haemophilus influenzae [3]", "value": "≤ 0.03", "unit": "µg/mL"},
      {"measurement": "MIC", "setting": "Haemophilus influenzae [5]", "value": 0.06, "unit": "µg/mL"},
      {"measurement": "MIC", "setting": "Haemophilus influenzae [6]", "value": "≤ 0.03", "unit": "µg/mL"}
    ]},
    {"smiles": "CO/N=C(\\C(=O)N[C@@H]1C(=O)N2C(C(=O)O)=C(COC(N)=O)CS[C@H]12)c1ccco1", "note": "[CEFUROXIME]", "values": [
      {"measurement": "MIC", "setting": "Haemophilus influenzae [1]", "value": 0.5, "unit": "µg/mL"},
      {"measurement": "MIC", "setting": "Haemophilus influenzae [2]", "value": 4, "unit": "µg/mL"},
      {"measurement": "MIC", "setting": "Haemophilus influenzae [3]", "value": 4, "unit": "µg/mL"},
      {"measurement": "MIC", "setting": "Haemophilus influenzae [4]", "value": 4, "unit": "µg/mL"},
      {"measurement": "MIC", "setting": "Haemophilus influenzae [5]", "value": 4, "unit": "µg/mL"},
      {"measurement": "MIC", "setting": "Haemophilus influenzae [6]", "value": 4, "unit": "µg/mL"}
    ]},
    {"smiles": "C[C@@H](O)[C@H]1C(=O)N2C(C(=O)O)=C(SCCNC=N)C[C@H]12", "note": "[IMIPENEM ANHYDROUS]", "values": [
      {"measurement": "MIC", "setting": "Haemophilus influenzae [1]", "value": 0.5, "unit": "µg/mL"},
      {"measurement": "MIC", "setting": "Haemophilus influenzae [2]", "value": 0.5, "unit": "µg/mL"},
      {"measurement": "MIC", "setting": "Haemophilus influenzae [3]", "value": 1, "unit": "µg/mL"},
      {"measurement": "MIC", "setting": "Haemophilus influenzae [4]", "value": 1, "unit": "µg/mL"},
      {"measurement": "MIC", "setting": "Haemophilus influenzae [5]", "value": 2, "unit": "µg/mL"},
      {"measurement": "MIC", "setting": "Haemophilus influenzae [6]", "value": 0.5, "unit": "µg/mL"}
    ]},
    {"smiles": "CC1(C)S[C@@H]2[C@H](NC(=O)Cc3ccccc3)C(=O)N2[C@H]1C(=O)O", "note": "[PENICILLIN G]", "values": [
      {"measurement": "MIC", "setting": "Haemophilus influenzae [1]", "value": 0.5, "unit": "µg/mL"},
      {"measurement": "MIC", "setting": "Haemophilus influenzae [2]", "value": "> 256", "unit": "µg/mL"},
      {"measurement": "MIC", "setting": "Haemophilus influenzae [3]", "value": "> 256", "unit": "µg/mL"},
      {"measurement": "MIC", "setting": "Haemophilus influenzae [4]", "value": "> 256", "unit": "µg/mL"},
      {"measurement": "MIC", "setting": "Haemophilus influenzae [5]", "value": "> 256", "unit": "µg/mL"},
      {"measurement": "MIC", "setting": "Haemophilus influenzae [6]", "value": "> 256", "unit": "µg/mL"}
    ]}
  ]
}
